Data reported in PMC2806602 (The Journal of neuroscience : the official journal of the …, 2009).
Changes are numbered by the printed parent chain.

Key:
Assay type in all cases: cell-based
GluRδ2^Lc D535A = molecular target: T1, GluRδ2^Lc D535A (Rattus norvegicus, UniProt Q63226, A654T/D535A); assay: Two-electrode voltage-clamp recordings in Xenopus oocytes, GluRδ2^Lc D535A
T1 sequence (Q63226 24-1007 D535A/A654T): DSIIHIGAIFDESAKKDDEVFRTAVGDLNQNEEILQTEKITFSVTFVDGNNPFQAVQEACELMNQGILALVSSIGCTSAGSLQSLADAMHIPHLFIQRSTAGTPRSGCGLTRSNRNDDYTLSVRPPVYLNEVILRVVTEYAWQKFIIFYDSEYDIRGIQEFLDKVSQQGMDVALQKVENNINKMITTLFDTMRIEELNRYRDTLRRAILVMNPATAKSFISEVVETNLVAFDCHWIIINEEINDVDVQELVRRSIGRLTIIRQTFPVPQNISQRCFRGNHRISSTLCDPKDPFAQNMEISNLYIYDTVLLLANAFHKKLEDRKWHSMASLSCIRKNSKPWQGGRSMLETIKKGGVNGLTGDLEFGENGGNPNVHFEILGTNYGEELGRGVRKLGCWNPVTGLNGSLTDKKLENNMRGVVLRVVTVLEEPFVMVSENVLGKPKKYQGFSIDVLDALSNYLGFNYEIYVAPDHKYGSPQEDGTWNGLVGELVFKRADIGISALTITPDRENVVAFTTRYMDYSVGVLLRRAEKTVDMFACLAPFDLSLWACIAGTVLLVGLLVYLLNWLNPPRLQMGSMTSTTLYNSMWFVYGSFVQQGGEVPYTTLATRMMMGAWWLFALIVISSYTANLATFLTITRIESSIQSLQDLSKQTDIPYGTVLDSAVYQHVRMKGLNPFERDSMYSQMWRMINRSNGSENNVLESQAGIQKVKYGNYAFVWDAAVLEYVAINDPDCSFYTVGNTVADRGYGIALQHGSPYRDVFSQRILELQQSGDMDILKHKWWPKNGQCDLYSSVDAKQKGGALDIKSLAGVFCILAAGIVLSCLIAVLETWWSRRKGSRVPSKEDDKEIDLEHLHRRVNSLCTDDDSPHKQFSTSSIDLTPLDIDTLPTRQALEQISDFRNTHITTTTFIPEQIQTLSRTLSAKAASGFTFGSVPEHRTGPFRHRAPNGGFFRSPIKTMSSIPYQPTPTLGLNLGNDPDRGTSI

GluRδ2^Lc P528C+L789C = molecular target: T2, GluRδ2^Lc P528C+L789C (Rattus norvegicus, UniProt Q63226, A654T/L789C/P528C); assay: Two-electrode voltage-clamp recordings in Xenopus oocytes, GluRδ2^Lc P528C+L789C
T2 sequence (Q63226 24-1007 P528C/A654T/L789C): T1 sequence (Q63226 24-1007 D535A/A654T) with P505C, A512D, L766C

GluRδ2^Lc E531A+D535A = molecular target: T3, GluRδ2^Lc E531A+D535A (Rattus norvegicus, UniProt Q63226, A654T/D535A/E531A); assay: Two-electrode voltage-clamp recordings in Xenopus oocytes, GluRδ2^Lc E531A+D535A
T3 sequence (Q63226 24-1007 E531A/D535A/A654T): T1 sequence (Q63226 24-1007 D535A/A654T) with E508A

[Ca+2] [Ca^2+, calcium]
Ca^2+ potentiation (relative to baseline) (GluRδ2^Lc D535A; 3 mM Ca^2+, ± SEM): 1.0 ± 0.01 fold
Ca^2+ potentiation (relative to baseline) (GluRδ2^Lc P528C+L789C; 3 mM Ca^2+, ± SEM): 0.9 ± 0.01 fold
Ca^2+ potentiation (relative to baseline) (GluRδ2^Lc E531A+D535A; 3 mM Ca^2+, ± SEM): 1.0 ± 0.04 fold

N[C@H](CO)C(=O)O [D-serine]
D-serine + 0 mM Ca^2+ nH (GluRδ2^Lc D535A; Hill slope, 0 mM Ca^2+): 2.3
D-serine + 3 mM Ca^2+ nH (GluRδ2^Lc D535A; Hill slope, 3 mM Ca^2+): 2.2
D-serine + 0 mM Ca^2+ nH (GluRδ2^Lc P528C+L789C; Hill slope, 0 mM Ca^2+): 1.1
D-serine + 3 mM Ca^2+ nH (GluRδ2^Lc P528C+L789C; Hill slope, 3 mM Ca^2+): 0.8
D-serine + 0 mM Ca^2+ nH (GluRδ2^Lc E531A+D535A; Hill slope, 0 mM Ca^2+): 2.2
D-serine + 3 mM Ca^2+ nH (GluRδ2^Lc E531A+D535A; Hill slope, 3 mM Ca^2+): 2.2
